Values quoted from earlier work as cited in patent US8790676B2, “Microencapsulated pesticide” (priority 2005, dated 2014).
Where two headings read alike, the source gives them in different places.

Molecule	water-solubility (pH 7) [mg/mL]	water-solubility (at pH 4.0, 20° C.) [mg/mL]
CCN(Cc1ccc(Cl)nc1)/C(=C/[N+](=O)[O-])NC [Nitempyram, (E)-N-(6-chloro-3-pyridylmethyl)-N-ethyl-N′-methyl-2-nitrovinylidenediamine]	> 590	
(E)-1-(2-chloro-1,3-thiazol-5-yl)-3-methyl-2-nitroguanidine [Clothianidin]		0.304
